Experimental data published in ChEMBL document CHEMBL4651402, “Screening of ~5500 FDA-approved drugs and clinical candidates for anti-SARS-CoV-2 activity” (2021).

Tested on: SARS-CoV-2
Assay: microbe, parasite or virus in culture
Conditions: Severe acute respiratory syndrome coronavirus 2, Vero C1008, 48 h

| Compound | IC50 [µM] | IC50 (read-out: pIC50 (converted)) [µM] |
| --- | --- | --- |
| CN1C(=O)CN=C(c2ccccc2F)c2cc(Cl)ccc21 [FLUDIAZEPAM] | > 20 | > 20 |
| N#Cc1c[nH]cc1-c1cccc2c1OC(F)(F)O2 [FLUDIOXONIL] | > 20 | > 20 |
| O=C(O)c1ccccc1Nc1cccc(C(F)(F)F)c1 [FLUFENAMIC ACID] | > 20 | > 20 |
| CC(=O)Oc1ccc(-c2ccc(F)cc2)cc1C(=O)O [FLUFENISAL] | > 20 | > 20 |
| Cn1c(=O)c2c(ncn2CCN2CCC(C(=O)c3ccc(F)cc3)CC2)n(C)c1=O [FLUFYLLINE] | > 20 | > 20 |
| O=C1c2ccccc2C(=O)C1c1ccc(F)cc1 [FLUINDIONE] | > 20 | > 20 |
| CCOC(=O)c1ncn2c1CN(C)C(=O)c1cc(F)ccc1-2 [FLUMAZENIL] | > 20 | > 20 |
| CC1CCc2cc(F)cc3c(=O)c(C(=O)O)cn1c23 (stereo not given) [FLUMEQUINE] | > 20 | > 20 |
| C[C@@H]1C[C@H]2[C@@H]3C[C@H](F)C4=CC(=O)C=C[C@]4(C)[C@@]3(F)[C@@H](O)C[C@]2(C)[C@@]1(O)C(=O)CO [FLUMETHASONE] | > 20 | > 20 |
| NC1=NCC(c2ccc(C(F)(F)F)cc2)O1 (stereo not given) [FLUMINOREX] | > 20 | > 20 |
| COc1ccc(-c2nc(C(F)(F)F)[nH]c2-c2ccc(OC)cc2)cc1 [FLUMIZOLE] | > 20 | > 20 |
| O=[N+]([O-])c1cnc(-c2ccc(F)cc2)n1CCO [FLUNIDAZOLE] | > 20 | > 20 |
| CC1(C)O[C@@H]2C[C@H]3[C@@H]4C[C@H](F)C5=CC(=O)C=C[C@]5(C)[C@H]4[C@@H](O)C[C@]3(C)[C@]2(C(=O)CO)O1 [FLUNISOLIDE] | > 20 | > 20 |
| CN1C(=O)CN=C(c2ccccc2F)c2cc([N+](=O)[O-])ccc21 [FLUNITRAZEPAM] | > 20 | > 20 |
| Cc1c(Nc2ncccc2C(=O)O)cccc1C(F)(F)F [FLUNIXIN] | > 20 | > 20 |
| CC1(C)O[C@@H]2C[C@H]3[C@@H]4C[C@H](F)C5=CC(=O)C=C[C@]5(C)[C@@]4(F)[C@@H](O)C[C@]3(C)[C@]2(C(=O)CO)O1 [FLUOCINOLONE ACETONIDE] | > 20 | > 20 |
| CC(=O)OCC(=O)[C@@]12OC(C)(C)O[C@@H]1C[C@H]1[C@@H]3C[C@H](F)C4=CC(=O)C=C[C@]4(C)[C@@]3(F)[C@@H](O)C[C@@]12C [FLUOCINONIDE] | > 20 | > 20 |
| O=c1[nH]cc(F)c(=O)[nH]1 [FLUOROURACIL] | > 20 | > 20 |

| Compound | IC50 [µM] | IC50 (read-out: pIC50 (converted)) [µM] |
| --- | --- | --- |
| CNCCC(Oc1ccc(C(F)(F)F)cc1)c1ccccc1 (stereo not given) [FLUOXETINE] | > 20 | > 20 |
| CN1CCN(C2=Nc3cc(F)ccc3Cc3ccccc32)CC1 [FLUPERLAPINE] | > 20 | > 20 |
| CCCCCCCCCC(=O)OCCN1CCN(CCCN2c3ccccc3Sc3ccc(C(F)(F)F)cc32)CC1 [FLUPHENAZINE DECANOATE] | > 20 | > 20 |
| CCCCCCC(=O)OCCN1CCN(CCCN2c3ccccc3Sc3ccc(C(F)(F)F)cc32)CC1 [FLUPHENAZINE ENANTHATE] | > 20 | > 20 |
| Cc1ccc2c(-c3ccc(F)cc3)nc(=O)n(C(C)C)c2c1 [FLUPROQUAZONE] | > 20 | > 20 |
| CC1(C)O[C@@H]2C[C@H]3[C@@H]4C[C@H](F)C5=CC(=O)CC[C@]5(C)[C@H]4[C@@H](O)C[C@]3(C)[C@]2(C(=O)CO)O1 [FLURANDRENOLIDE] | > 20 | > 20 |
| CCN(CC)CCN1C(=O)CN=C(c2ccccc2F)c2cc(Cl)ccc21 [FLURAZEPAM] | > 20 | > 20 |
| O=C(O)c1cccc2c1Nc1cc(C(F)(F)F)ccc1S2 [FLUTIAZIN] | > 20 | > 20 |
| CCC(=O)O[C@]1(C(=O)SCF)[C@H](C)C[C@H]2[C@@H]3C[C@H](F)C4=CC(=O)C=C[C@]4(C)[C@@]3(F)[C@@H](O)C[C@@]21C [FLUTICASONE PROPIONATE] | > 20 | > 20 |
| COCCCC/C(=N\OCCN)c1ccc(C(F)(F)F)cc1 [FLUVOXAMINE] | > 20 | > 20 |
| CNC(=O)N1CC(Oc2cccc(C(F)(F)F)c2)C1 [FLUZINAMIDE] | > 20 | > 20 |
| Nc1nc(=O)c2nc(CNc3ccc(C(=O)N[C@@H](CCC(=O)O)C(=O)O)cc3)cnc2[nH]1 [FOLIC ACID] | > 20 | > 20 |
| Cc1cn[nH]c1 [FOMEPIZOLE] | > 20 | > 20 |
| CN(CC(=O)N1CCOCC1)Cc1c(Cl)cccc1NC(=O)c1ccccc1 [FOMINOBEN] | > 20 | > 20 |
| c1ccc(OCc2ccc(CCCN3CCOCC3)cc2)cc1 [FOMOCAINE] | > 20 | > 20 |
| CC(CN1c2ccccc2Sc2ccc(S(=O)(=O)N(C)C)cc21)N(C)C (stereo not given) [FONAZINE] | > 20 | > 20 |
| COc1cc2c(Oc3ccc(NC(=O)C4(C(=O)Nc5ccc(F)cc5)CC4)cc3F)ccnc2cc1OCCCN1CCOCC1 [FORETINIB] | > 20 | > 20 |
